Measured values as given in article PMC5559490, “Synthesis of Saccharumoside-B analogue with potential of antiproliferative and pro-apoptotic activities” (Scientific Reports, 2017).
Like-named read-outs stand apart in the source and are kept apart here.

Assays:
[1] = test system: MIA PaCa-2 pancreatic cancer cells; assay: MTT antiproliferative assay, MIA PaCa-2; format: cell-based; details: Homo sapiens
[2] = test system: HeLa cervical cancer cells; assay: MTT antiproliferative assay, HeLa; format: cell-based; details: Homo sapiens, read-out: IC50 HeLa Cervical
[3] = test system: MCF-10A mammary epithelial cells; assay: MTT assay on normal MCF-10A cells; format: cell-based; details: Homo sapiens, 48 h, read-out: IC50 MCF-10A Breast (normal cell line)
[4] = test system: HL-60 leukemia cells; assay: MTT antiproliferative assay, HL-60; format: cell-based, human; details: Homo sapiens
[5] = test system: DU145 prostate cancer cells; assay: MTT antiproliferative assay, DU145; format: cell-based; details: Homo sapiens
[6] = test system: CaCo-2 colon cancer cells; assay: MTT antiproliferative assay, CaCo-2; format: cell-based; details: Homo sapiens
[7] = test system: MCF-7 breast cancer cells; assay: MTT antiproliferative assay, MCF-7; format: cell-based; details: Homo sapiens
[8] = test system: human peripheral blood mononuclear cells (PBMC); assay: MTT assay on normal PBMC; format: cell-based; details: 48 h, read-out: IC50 PBMC (normal cells)
[9] = test system: MCF-7 cells; assay: Rhodamine-123 mitochondrial membrane potential assay, MCF-7; format: cell-based, human; details: 24 h
Procedure: [Worded in the source for another cell line; this cell line is reported under the same test.] Mitochondrial membrane potential changes (ΔΨm) were determined by flow cytometry using rhodamine-123 (green-fluorescent dye)[32]. MIA PaCa-2 pancreatic cancer cells (1 × 10^6 cells/well) were exposed to the isolated compound (5 µM) for 24 h. Further, rhodamine-123 (200 nM) was added to the cells, which were kept in dark for 35 min. The cells were further centrifuged and the pellet was washed with phosphate buffered saline (1 ml). The intensity of fluorescence in the cells represented the mitochondrial membrane potential change (ΔΨm), which was measured using a flow cytometer.

[10] = MIA PaCa-2, MTT assay, cancer cell line, mean of three independent experiments ± S.E.M., read-out: IC50 MIA PaCa-2 Pancreatic
[11] = MTT assay, cancer cell line, mean of three independent experiments ± S.E.M.
[12] = HL-60, MTT assay, cancer cell line, mean of three independent experiments ± S.E.M., read-out: IC50 HL-60 Leukemia
[13] = DU-145, MTT assay, cancer cell line, mean of three independent experiments ± S.E.M., read-out: IC50 DU145 Prostate
[14] = Caco-2, MTT assay, cancer cell line, mean of three independent experiments ± S.E.M., read-out: IC50 CaCo-2 Colon
[15] = MCF7, MTT assay, cancer cell line, mean of three independent experiments ± S.E.M., read-out: IC50 MCF-7 Breast

## COc1cc(CO)cc(OC)c1OC1OC(COC(=O)c2ccccc2)C(O)C(O)C1O (stereo not drawn) [Compound 9j, (6-(4-(hydroxymethyl)-2,6-dimethoxyphenoxy)-tetrahydro-3,4,5-trihydroxy-2H-pyran-2-yl)methyl benzoate]
[1]; [10]
  IC50: 45.76 ± 0.42 µM
other
  melting point: 180 to 182 °C
[2]; [11]
  IC50: 30.4 ± 2.81 µM
[3]; MTT assay, normal cells
  IC50: > 100 µM
[4]; [12]
  IC50: 25.6 ± 0.94 µM
[5]; [13]
  IC50: 36.8 ± 0.59 µM
[6]; [14]
  IC50: 33.6 ± 1.51 µM
[7]; [15]
  IC50: 29.4 ± 0.79 µM
[8]; MTT assay, normal cells
  IC50: > 100 µM

## COc1cc(CO)ccc1OC1OC(COC(=O)c2cc(OC)c(OC)c(OC)c2)C(O)C(O)C1O (stereo not drawn) [Compound 9e, (6-(4-(hydroxymethyl)-2-methoxyphenoxy)-tetrahydro-3,4,5-trihydroxy-2H-pyran-2-yl)methyl 3,4,5-trimethoxybenzoate]
[1]; [10]
  IC50: 36.3 ± 1.58 µM
other
  melting point: 168 to 170 °C
[3]; MTT assay, normal cells
  IC50: > 100 µM
[4]; [12]
  IC50: 22.2 ± 1.32 µM
[5]; [13]
  IC50: 49.4 ± 1.72 µM
[6]; [14]
  IC50: 43.5 ± 1.87 µM
[7]; [15]
  IC50: 33.4 ± 0.76 µM
[8]; MTT assay, normal cells
  IC50: > 100 µM

## COc1cc(OC)cc(C(=O)OCC2OC(Oc3c(OC)cc(CO)cc3OC)C(O)C(O)C2O)c1 (stereo not drawn) [Compound 9l, (6-(4-(hydroxymethyl)-2,6-dimethoxyphenoxy)-tetrahydro-3,4,5-trihydroxy-2H-pyran-2-yl)methyl 3,5-dimethoxybenzoate]
[1]; [10]
  IC50: 43.8 ± 1.75 µM
other
  melting point: 131 to 133 °C
[2]; [11]
  IC50: 36.3 ± 1.76 µM
[3]; MTT assay, normal cells
  IC50: > 100 µM
[4]; [12]
  IC50: 31.8 ± 1.58 µM
[5]; [13]
  IC50: 49.6 ± 3.59 µM
[6]; [14]
  IC50: 41.1 ± 1.48 µM
[7]; [15]
  IC50: 33.8 ± 0.73 µM
[8]; MTT assay, normal cells
  IC50: > 100 µM

## COc1cc(CO)ccc1OC1OC(COC(=O)c2ccccc2)C(O)C(O)C1O (stereo not drawn) [Compound 9b, (6-(4-(hydroxymethyl)-2-methoxyphenoxy)-tetrahydro-3,4,5-trihydroxy-2H-pyran-2-yl)methyl benzoate]
[1]; [10]
  IC50: 39.3 ± 1.42 µM
other
  melting point: 187 to 189 °C
[2]; [11]
  IC50: 36.7 ± 2.31 µM
[3]; MTT assay, normal cells
  IC50: > 100 µM
[4]; [12]
  IC50: 22.8 ± 1.3 µM
[5]; [13]
  IC50: 37.3 ± 2.54 µM
[6]; [14]
  IC50: 47.3 ± 1.62 µM
[7]; [15]
  IC50: 26.4 ± 0.96 µM
[8]; MTT assay, normal cells
  IC50: > 100 µM

## COc1cc(CO)cc(OC)c1OC1OC(COC(=O)c2ccc(F)cc2)C(O)C(O)C1O (stereo not drawn) [Compound 9m, (6-(4-(hydroxymethyl)-2,6-dimethoxyphenoxy)-tetrahydro-3,4,5-tri hydroxy-2H-pyran-2-yl)methyl 4-fluorobenzoate]
[1]; [10]
  IC50: 47.3 ± 2.54 µM
other
  melting point: 170 to 172 °C
[2]; [11]
  IC50: 34.1 ± 1.83 µM
[3]; MTT assay, normal cells
  IC50: > 100 µM
[4]; [12]
  IC50: 21.8 ± 1.53 µM
[5]; [13]
  IC50: 33.8 ± 1.27 µM
[6]; [14]
  IC50: 35.6 ± 1.46 µM
[7]; [15]
  IC50: 28.4 ± 0.69 µM
[8]; MTT assay, normal cells
  IC50: > 100 µM

## CC[C@@]1(O)C(=O)OCc2c1cc1n(c2=O)Cc2cc3ccccc3nc2-1 [Camptothecin, camptothecin, reference compound]
[1]; [10]
  IC50: 4.24 ± 0.41 µM
[2]; [11]
  IC50: 4.28 ± 0.32 µM
[3]; MTT assay, normal cells
  IC50: > 100 µM
[4]; [12]
  IC50: 4.95 ± 0.5 µM
[5]; [13]
  IC50: 6.75 ± 0.45 µM
[6]; [14]
  IC50: 3.68 ± 0.21 µM
[7]; [15]
  IC50: 5.16 ± 0.32 µM
[9]; 5 µM
  mitochondria membrane potential loss: 53.33 ± 3.06%
[9]; 10 µM
  mitochondria membrane potential loss: 62 ± 2.31%
[8]; MTT assay, normal cells
  IC50: > 100 µM

## COc1cc(CO)ccc1OC1OC(COC(=O)c2cc([N+](=O)[O-])cc([N+](=O)[O-])c2)C(O)C(O)C1O (stereo not drawn) [Compound 9i, (6-(4-(hydroxymethyl)-2-methoxyphenoxy)-tetrahydro-3,4,5-trihydroxy-2H-pyran-2-yl)methyl 3,5-dinitrobenzoate]
[1]; MIA PaCa-2, read-out: IC50 MIA PaCa-2 Pancreatic
  IC50: 34.8 ± 1.93 µM
other
  melting point: 186 to 188 °C
[2]
  IC50: 38.4 ± 1.53 µM
[3]
  IC50: > 100 µM
[4]; HL-60, read-out: IC50 HL-60 Leukemia
  IC50: 29.6 ± 0.83 µM
[5]; DU-145, read-out: IC50 DU145 Prostate
  IC50: 43.6 ± 1.87 µM
[6]; Caco-2, read-out: IC50 CaCo-2 Colon
  IC50: 47 ± 2.58 µM
[7]; MCF7, read-out: IC50 MCF-7 Breast
  IC50: 34.8 ± 0.51 µM
[8]
  IC50: > 100 µM

## COc1cc(C(=O)OC[C@H]2O[C@@H](Oc3ccc(CO)cc3OC)[C@H](O)[C@@H](O)[C@@H]2O)ccc1O [Compound 10, (6-(4-(hydroxymethyl)-2-methoxyphenoxy)-tetrahydro-3,4,5-trihydroxy-2H-pyran-2-yl) methyl 4-hydroxy-3-methoxy benzoate]
[1]; [10]
  IC50: 28.3 ± 0.76 µM
other
  melting point: 200 to 202 °C
[2]; [11]
  IC50: 39.9 ± 2.6 µM
[3]; MTT assay, normal cells
  IC50: > 100 µM
[4]; [12]
  IC50: 31.8 ± 1.82 µM
[5]; [13]
  IC50: 33.5 ± 1.43 µM
[6]; [14]
  IC50: 44.7 ± 2.52 µM
[7]; [15]
  IC50: 24.9 ± 1.67 µM
[8]; MTT assay, normal cells
  IC50: > 100 µM

## COc1cc(CO)ccc1OC1OC(COC(=O)c2ccccc2I)C(O)C(O)C1O (stereo not drawn) [Compound 9g, (6-(4-(hydroxymethyl)-2-methoxyphenoxy)-tetrahydro-3,4,5-trihydroxy-2H-pyran-2-yl)methyl 2-iodobenzoate]
[1]; [10]
  IC50: 23.4 ± 1.53 µM
other
  melting point: 128 to 130 °C
[2]; [11]
  IC50: 41.9 ± 3.15 µM
[3]; MTT assay, normal cells
  IC50: > 100 µM
[4]; [12]
  IC50: 33.5 ± 1.45 µM
[5]; [13]
  IC50: 38.32 ± 0.37 µM
[6]; [14]
  IC50: 43.9 ± 2.52 µM
[7]; [15]
  IC50: 28.9 ± 0.47 µM
[8]; MTT assay, normal cells
  IC50: > 100 µM

## COc1cc(CO)cc(OC)c1OC1OC(COC(=O)c2ccccc2I)C(O)C(O)C1O (stereo not drawn) [Compound 9n, (6-(4-(hydroxymethyl)-2,6-dimethoxyphenoxy)-tetrahydro-3,4,5-tri hydroxy-2H-pyran-2-yl)methyl 2-iodobenzoate]
[1]; [10]
  IC50: 26.8 ± 1.25 µM
other
  melting point: 124 to 126 °C
[2]; [11]
  IC50: 32.1 ± 1.35 µM
[3]; MTT assay, normal cells
  IC50: > 100 µM
[4]; [12]
  IC50: 28.3 ± 1.72 µM
[5]; [13]
  IC50: 37.9 ± 2.48 µM
[6]; [14]
  IC50: 45.2 ± 1.79 µM
[7]; [15]
  IC50: 35 ± 1.52 µM
[8]; MTT assay, normal cells
  IC50: > 100 µM

## COc1cc(CO)cc(OC)c1OC1OC(COC(=O)c2ccc(C)cc2)C(O)C(O)C1O (stereo not drawn) [Compound 9k, (6-(4-(hydroxymethyl)-2,6-dimethoxyphenoxy)-tetrahydro-3,4,5-trihydroxy-2H-pyran-2-yl)methyl 4-methylbenzoate]
[1]; [10]
  IC50: 23.9 ± 0.74 µM
other
  melting point: 201 to 203 °C
[2]; [11]
  IC50: 26.6 ± 1.37 µM
[3]; MTT assay, normal cells
  IC50: > 100 µM
[4]; [12]
  IC50: 18.5 ± 0.78 µM
[5]; [13]
  IC50: 42.8 ± 0.59 µM
[6]; [14]
  IC50: 28.3 ± 1.47 µM
[7]; [15]
  IC50: 22 ± 0.72 µM
[8]; MTT assay, normal cells
  IC50: > 100 µM

## COc1cc(CO)ccc1OC1OC(COC(=O)c2cccnc2)C(O)C(O)C1O (stereo not drawn) [Compound 9h, (6-(4-(hydroxymethyl)-2-methoxyphenoxy)-tetrahydro-3,4,5-trihydroxy-2H-pyran-2-yl)methyl nicotinate]
[1]; [10]
  IC50: 33.9 ± 1.41 µM
other
  melting point: 194 to 196 °C
[2]; [11]
  IC50: 35.4 ± 2.2 µM
[3]; MTT assay, normal cells
  IC50: > 100 µM
[4]; [12]
  IC50: 30.2 ± 1.32 µM
[5]; [13]
  IC50: 42.1 ± 1.52 µM
[6]; [14]
  IC50: 49.04 ± 0.48 µM
[7]; [15]
  IC50: 33.9 ± 0.48 µM
[8]; MTT assay, normal cells
  IC50: > 100 µM

## COc1cc(CO)ccc1OC1OC(COC(=O)c2ccc(C)cc2)C(O)C(O)C1O (stereo not drawn) [Compound 9c, (6-(4-(hydroxymethyl)-2-methoxyphenoxy)-tetrahydro-3,4,5-trihydroxy-2H-pyran-2-yl)methyl 4-methylbenzoate]
[1]; [10]
  IC50: 13.3 ± 0.25 µM
other
  melting point: 228 to 230 °C
[2]; [11]
  IC50: 14.2 ± 0.68 µM
[3]; MTT assay, normal cells
  IC50: > 100 µM
[4]; [12]
  IC50: 12.5 ± 0.81 µM
[5]; [13]
  IC50: 12.4 ± 0.47 µM
[6]; [14]
  IC50: 13.7 ± 0.63 µM
[7]; [15]
  IC50: 9.34 ± 0.48 µM
[8]; MTT assay, normal cells
  IC50: > 100 µM

## COc1cc(OC)cc(C(=O)OCC2OC(Oc3ccc(CO)cc3OC)C(O)C(O)C2O)c1 (stereo not drawn) [Compound 9d, (6-(4-(hydroxymethyl)-2-methoxyphenoxy)-tetrahydro-3,4,5-trihydroxy-2H-pyran-2-yl)methyl 3,5-dimethoxybenzoate]
[1]; [10]
  IC50: 44.6 ± 2.67 µM
other
  melting point: 199 to 201 °C
[2]; [11]
  IC50: 39.5 ± 2.43 µM
[3]; MTT assay, normal cells
  IC50: > 100 µM
[4]; [12]
  IC50: 25.2 ± 1.92 µM
[5]; [13]
  IC50: 42.5 ± 1.51 µM
[6]; [14]
  IC50: 37.4 ± 1.65 µM
[7]; [15]
  IC50: 28.3 ± 1.47 µM
[8]; MTT assay, normal cells
  IC50: > 100 µM
